Assay results: patent publication US20010001104A1, “Thienopyridine compounds, their production and use” (priority 1998, published 2001)
Like-named read-outs stand apart in the source and are kept apart here.

What was measured:
[1] = target: T1, GnRH receptors (Rattus norvegicus, UniProt P30969); experiment: 125I-leuprorelin binding inhibition, rat pituitary anterior lobe membrane fraction; conditions: for IC50: Hill plot; for inhibition at 1 µM: read-out: binding inhibition rate (%) Rat (1 μM)
T1 construct: Anterior lobes of the pituitary glands were isolated from forty Wistar rats; from tissue; host or cells: anterior lobe of the pituitary gland, male Wistar rats
T1 sequence (P30969 1-327): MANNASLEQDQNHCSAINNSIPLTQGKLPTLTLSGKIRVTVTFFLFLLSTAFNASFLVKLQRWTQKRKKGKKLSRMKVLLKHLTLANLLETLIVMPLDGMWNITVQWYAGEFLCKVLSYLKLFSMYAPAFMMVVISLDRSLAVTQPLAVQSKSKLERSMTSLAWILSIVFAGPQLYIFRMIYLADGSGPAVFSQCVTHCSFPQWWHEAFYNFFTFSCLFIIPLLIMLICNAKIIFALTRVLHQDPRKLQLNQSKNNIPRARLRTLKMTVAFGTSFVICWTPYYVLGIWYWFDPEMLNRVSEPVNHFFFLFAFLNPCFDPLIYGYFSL
Protocol: After stirring, 10 μl of 0.001% H2O2 was added, and a reaction was carried out at room temperature for 20 minutes. By adding 700 μl of a 0.05% TFA (trifluoroacetic acid) solution, the reaction was stopped, followed by purification by reversed-phase HPLC. […] Anterior lobes of the pituitary glands were isolated from forty Wistar rats (8 weeks old, male), and washed with ice-cooled homogenate buffer [25 mM Tris (tris(hydroxymethyl)aminomethane)-HCl, 0.3M sucrose, 1 mM EGTA (glycol-etherdiamine-N,N,N′,N′-tetraacetic acid), 0.25 mM PMSF (phenylmethylsulfonyl fluoride), 10 U/ml aprotinin, […] pepstatin, […] leupeptin, […], 0.03% sodium azide, pH 7.5]. The pituitary tissue was floated in 2 ml of the homogenate buffer and homogenized using a Polytron homogenizer. The homogenate was centrifuged at 700×g for 15 minutes. The supernatant was taken in an ultracentrifuge tube and centrifuged at 100, 000×g for 1 hour to provide a membrane fraction pellet. This pellet was suspended in 2 ml of assay buffer [25 mM Tris-HCl, 1 mM EDTA (ethylenediaminetetraacetic acid), 0.1% BSA (bovine serum albumin), 0.25 mM PMSF, 1 mg/ml pepstatin, 20 mg/ml leupeptin, […], 0.03% sodium azide, pH 7.5) and the suspension was centrifuged at 100,000×g for 1 hour. The membrane fraction recovered as a pellet was resuspended in 10 ml of assay buffer, divided into portions, preserved at −80° C. and thawed when needed. […] Where the rat or bovine pituitary anterior lobe membrane fraction was used, the reaction was conducted at 4° C. for 90 minutes. Where the membrane fraction of the CHO with human GnRH receptors expressed was used, the reaction was carried out at 25° C. for 60 minutes. After each reaction, the reaction mixture was aspirated and filtered through a polyethyleneimine-treated Whatman glass filter (GF-F). […] The expression (TB-SB)/(TB-NSB)×100 (where SB= radioactivity with the compound added, TB=maximum bound radioactivity, NSB=nonspecifically bound radioactivity) was calculated to find the binding inhibition rate (%) of each test compound.

[2] = target: T2, human GnRH receptor (Homo sapiens, UniProt P30968); experiment: 125I-leuprorelin binding inhibition, CHO cell membrane fraction containing human GnRH receptor
T2 construct: expressed in transfected cells; host or cells: CHO (Chinese hamster ovarian) cells
T2 sequence (P30968 1-328): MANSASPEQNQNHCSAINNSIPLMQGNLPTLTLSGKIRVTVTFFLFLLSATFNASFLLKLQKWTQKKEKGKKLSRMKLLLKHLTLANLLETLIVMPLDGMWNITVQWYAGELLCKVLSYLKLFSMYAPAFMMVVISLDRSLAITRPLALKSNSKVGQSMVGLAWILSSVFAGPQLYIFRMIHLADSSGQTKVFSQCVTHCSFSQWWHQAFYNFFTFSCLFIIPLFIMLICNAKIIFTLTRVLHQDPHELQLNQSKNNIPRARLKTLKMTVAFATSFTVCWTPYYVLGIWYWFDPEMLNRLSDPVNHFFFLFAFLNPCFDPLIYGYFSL
Protocol: After stirring, 10 μl of 0.001% H2O2 was added, and a reaction was carried out at room temperature for 20 minutes. By adding 700 μl of a 0.05% TFA (trifluoroacetic acid) solution, the reaction was stopped, followed by purification by reversed-phase HPLC. […] To the cell pellet, 10 ml of a cell homogenate buffer (10 mM NaHCO3, 5 mM EDTA, pH 7.5) was added, followed by homogenization using the Polytron homogenizer. After centrifugation at 400×g for 15 minutes, the supernatant was transferred to an ultracentrifugation tube and centrifuged at 100,000×g for 1 hour to yield a membrane fraction precipitate. This precipitate was suspended in 2 ml of an assay buffer and centrifuged at 100,000×g for 1 hour. The membrane fraction recovered as a precipitate was again suspended in 20 ml of the assay buffer, dispensed, and stored at −80° C. before use upon thawing. […] Where the rat or bovine pituitary anterior lobe membrane fraction was used, the reaction was conducted at 4° C. for 90 minutes. Where the membrane fraction of the CHO with human GnRH receptors expressed was used, the reaction was carried out at 25° C. for 60 minutes. After each reaction, the reaction mixture was aspirated and filtered through a polyethyleneimine-treated Whatman glass filter (GF-F). […] The expression (TB-SB)/(TB-NSB)×100 (where SB= radioactivity with the compound added, TB=maximum bound radioactivity, NSB=nonspecifically bound radioactivity) was calculated to find the binding inhibition rate (%) of each test compound.

[3] = system: blood LH; experiment: Suppression of blood LH in castrated monkeys; format: in vivo, cynomolgus monkeys (Macaca fascicularis); conditions: castrated male cynomolgus monkeys; 30 mg/kg oral; values only in FIG. 1
Protocol: The compound produced in Example 1-2 was orally administered to castrated male cynomolgus monkeys (Macaca fascicularis), and blood LH was quantified. The male cynomolgus monkeys, used at 3 years 8 months to 7 years 7 months of age at time of experimentation, had been castrated more than half a year prior to the examination. Test animals [n =2; compound (1) and compound (2)] were given 30 mg/kg (3 ml/kg) of the compound suspended in 0.5% methyl cellulose at a final concentration of 1% by oral administration, and control animals [n=3; control (1), control (2) and control (3)] were given 3 ml/kg of the 0.5% methyl cellulose dispersant alone by oral administration. […]
Plasma LH concentrations were determined by a bioassay using mouse testicular cells. […] The testosterone concentration in the culture supernatant was determined by a radioimmunoassay (CIS Diagnostics Company), and the LH concentration in the test monkey plasma was calculated from the standard curve for the standard equine LH.
For the control (1), the control (2), and the control (3), changes over time in the LH concentrations in each animal are expressed as percent ratios to the respective reference values, which comprise the LH concentrations immediately before administration in each control animal (cynomolgus monkey). […]

[4] = rat pituitary anterior lobe membrane fraction, 125I-leuprorelin

melting point [°C] | SMILES | further results
161 to 162 | CC(C)C(=O)c1cn(Cc2c(F)cccc2F)c2sc(-c3ccc(NC(=O)[C@H](C)CO)cc3)c(CN(C)Cc3ccccc3)c2c1=O [Example 10-1, (R)-4,7-dihydro-2-[4-(3-hydroxy-2-methylpropionylamino)phenyl]-7-(2,6-difluorobenzyl)-3-(N-benzyl-N-methylaminomethyl)-5-isobutyryl-4-oxothieno[2,3-b]pyridine] | –
254 to 256 | CC(C)C(=O)c1cn(Cc2c(F)cccc2F)c2sc(-c3ccc(NC(=O)C4CC4)cc3)c(CN(C)Cc3ccccc3)c2c1=O.Cl [Example 1-2, 3-(N-benzyl-N-methylaminomethyl)-4,7-dihydro-5-isobutyryl-7-(2,6-difluorobenzyl)-2-(4-cyclopropanecarbonylaminophenyl)-4-oxothieno[2,3-b]pyridine Hydrochloride] | inhibition at 1 µM ([1]; 1 μM compound, rat pituitary anterior lobe membrane fraction, 125I-leuprorelin, 4° C., 90 minutes): 96%; IC50 [1, 4]: 0.06 µM; plasma LH concentrations [3]: suppression of plasma LH concentrations; inhibition at 20 µM ([2]; 20 μM compound, CHO membrane fraction with human GnRH receptors, 125I-leuprorelin, 25° C., 60 minutes, read-out: binding inhibition rate (%) Human (20 μM)): 102%; IC50 ([2]; CHO membrane fraction with human GnRH receptors, 125I-leuprorelin, Hill plot, read-out: IC50 value (μM) Human): 0.0001 µM
178 to 180 | CC(C)C(=O)c1cn(Cc2c(F)cccc2F)c2sc(-c3ccc(NC(=O)C(C)(C)O)cc3)c(CN(C)Cc3ccccc3)c2c1=O [Example 11-1, 4,7-dihydro-2-[4-(2-hydroxy-2-methylpropionylamino)phenyl]-7-(2,6-difluorobenzyl)-3-(N-benzyl-N-methylaminomethyl)-5-isobutyryl-4-oxothieno[2,3-b]pyridine] | –
170 to 172 | CC(C)C(=O)Nc1ccc(-c2sc3c(c2CN(C)Cc2ccccc2)c(=O)c(C(=O)C(C)(C)O)cn3Cc2c(F)cccc2F)cc1 [Example 7, 3-(N-benzyl-N-methylaminomethyl)-4,7-dihydro-7-(2,6-difluorobenzyl)-2-(4-isobutyrylaminophenyl)-5-(2-hydroxy-2-methylpropionyl)-4-oxothieno[2,3-b]pyridine] | –
214 to 216 | CC(C)C(=O)c1cn(Cc2c(F)cccc2F)c2sc(-c3ccc(NC(=O)[C@H](C)CO)cc3)c(CN(C)Cc3ccccc3)c2c1=O.Cl | –

The remaining lines, values behind:

SMILES | melting point [°C] | further results
CN(Cc1ccccc1)Cc1c(-c2ccc(NC(=O)C(C)(C)O)cc2)sc2c1c(=O)c(C(=O)c1ccccc1)cn2Cc1c(F)cccc1F [Example 22, 3-(N-benzyl-N-methylaminomethyl)-5-benzoyl-7-(2,6-difluorobenzyl)-4,7-dihydro-2-[4-(2-hydroxy-2-methylpropionylamino)phenyl]-4-oxothieno[2,3-b]pyridine] | 222 to 223 | –
CC(C)C(=O)c1cn(Cc2c(F)cccc2F)c2sc(-c3ccc(NC(=O)C(C)CO)cc3)c(CN(C)Cc3ccccc3)c2c1=O (stereo not shown) [Example 3, 3-(N-benzyl-N-methylaminomethyl)-4,7-dihydro-5-isobutyryl-7-(2,6-difluorobenzyl)-2-[4-(3-hydroxy-2-methylpropionylamino)phenyl]-4-oxothieno[2,3-b]pyridine] | 161 to 162 | IC50 [1, 4]: 0.6 µM; inhibition at 1 µM [1]: 62%; IC50 [2]: 0.0002 µM
C[C@H](CO)C(=O)Nc1ccc(-c2sc3c(c2CN(C)Cc2ccccc2)c(=O)c(C(=O)c2ccccc2)cn3Cc2c(F)cccc2F)cc1 [Example 23] | 145 to 146 | –
CC(C)C(=O)c1cn(Cc2c(F)cccc2F)c2sc(-c3ccc(NC(=O)C(C)(C)O)cc3)c(CN(C)Cc3ccccc3)c2c1=O.Cl | 213 to 215 | –
CN(Cc1ccccc1)Cc1c(-c2ccc(NC(=O)C3(O)CC3)cc2)sc2c1c(=O)c(C(=O)c1ccccc1)cn2Cc1c(F)cccc1F [Example 21] | 186 to 188 | –
CC(C)C(=O)c1cn(Cc2c(F)cccc2F)c2sc(-c3ccc(NC(=O)CO)cc3)c(CN(C)Cc3ccccc3)c2c1=O.Cl | 197 to 199 | –
CC(C)C(=O)c1cn(Cc2c(F)cccc2F)c2sc(-c3ccc(NC(=O)C4(O)CC4)cc3)c(CN(C)Cc3ccccc3)c2c1=O.Cl | 220 to 222 | –
CC(C)C(=O)c1cn(Cc2c(F)cccc2F)c2sc(-c3ccc(NC(=O)CC(C)(C)O)cc3)c(CN(C)Cc3ccccc3)c2c1=O.Cl | 216 to 218 | –
CONC(=O)Nc1ccc(-c2sc3c(c2CN(C)Cc2ccccc2)c(=O)c(C(=O)C(C)C)cn3Cc2c(F)cccc2F)cc1.Cl | 225 to 230 | –
